Biological target: T1, AtD14 fused to firefly luciferase (D14::LUC) (Arabidopsis thaliana, UniProt Q9SQR3)
T1 construct: a pDONOR207 carrying the D14 promoter fused to the D14 CDS; expressed in transfected cells
T1 sequence (Q9SQR3 1-267): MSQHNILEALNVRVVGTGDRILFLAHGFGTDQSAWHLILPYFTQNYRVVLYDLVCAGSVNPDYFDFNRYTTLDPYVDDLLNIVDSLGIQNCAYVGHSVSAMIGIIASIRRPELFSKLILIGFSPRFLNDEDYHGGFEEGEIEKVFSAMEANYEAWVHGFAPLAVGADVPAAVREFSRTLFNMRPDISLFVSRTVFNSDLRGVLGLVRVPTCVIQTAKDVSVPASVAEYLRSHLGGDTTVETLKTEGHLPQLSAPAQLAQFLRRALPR
Assay: Luminometer (luciferase) assay: D14::LUC degradation in transgenic Arabidopsis seedlings
Assay type: in vivo
Conditions: for D14 degradation in the luciferase assay: 0.01–100 μM range, racemic mixtures
Procedure: A binary D14p::D14::LUC vector was obtained by LR-recombination (Invitrogen) of a pDONOR207 carrying the D14 promoter fused to the D14 CDS ([Chevalier et al., 2014]) in pGWB435 ([Nakagawa et al., 2007]). Transgenic D14::D14::LUC Arabidopsis plants were generated by agroinfiltration of Col-0 plants using the floral dip method ([Clough and Bent, 1998]). Seeds were surface-sterilized with an 8% aqueous solution of commercial bleach in distilled water for 5 min and rinsed five times with sterile distilled water. Sterile seeds were plated on MS medium (pH 5.8) ([Murashige and Skoog, 1962]) without sucrose solidified with 1.2% Agar, and kept at 4 °C for 3 d (stratification). Seeds were then incubated for 7 d in a growth chamber at 25 °C and a photoperiod of 16 h light/8 h dark. SL analogues and mimics (Figs 1, 2) were accurately weighed and dissolved in acetone at 10^–2 M. Five different concentrations (10^–4 M, 10^–5 M, 10^–6 M, 10^–7 M, 10^–8 M) were prepared by 1:10 serial dilutions in liquid MS medium, together with blank controls containing corresponding water and acetone volumes in the medium. D-Luciferin (potassium salt) stock was prepared at 25 mg ml^–1 in DMSO, aliquoted and stored at –80 °C until use; all other solutions were prepared just before the assay. Using tweezers, 7-d-old Arabidopsis seedlings were placed in a 96-well microtiter plate with their cotyledons facing up (one seedling per well, in 170 µl of liquid MS medium), and 15 µl of luciferin (0.125 mg ml^–1, diluted 1:200 in MS from stock) was added to each well, corresponding to 1.875 µg. The plate was covered with a transparent film with a hole poked above each well to allow for gas exchange. Measurements were taken every 15 min in a multimode reader (LB942 Tristar2 S, Berthold Technologies) for the following 24 h; the signal was allowed to stabilize for 2–3 h in the light before treatments were started by adding 15 µl per well of the different SLs in MS medium, thus reaching a final volume in each well of 200 µl and 9.4 µg ml^– of luciferin. Appropriate blank controls were added as well. Each treatment was applied to a minimum of 16 wells (seedlings), each of which was measured individually over time. The percentage efficacy of each compound molecule was calculated 6 h after treatment as a function of the decrease in D14::LUC-emitted luminescence with respect to (+)-GR24 1 µM (i.e. GR24^5DS), assuming that the latter, minus the drift of the corresponding blank control, had 100% efficacy. For calibration purposes, SL analogues that had already been characterized, namely (±)-ST23b, (±)-EGO10, and (±)-EDOT ([Prandi et al., 2011]), were tested across the same concentration range, along with (±)-strigol (Chiralix, NL). The half maximal-effective concentration (EC50) for (+)-GR24 was calculated by linear regression fitting of the data (n=5, with at least three individual seedlings and values being pooled for each replicate) at the different concentrations, minus the values for acetone-treated samples (negative controls) and normalized in relation to (+)-GR24 0.01 μM, which was set to 0%. Confidence intervals at 95% were used to express errors of the means.
D14 is a target for proteasome-dependent destruction upon interaction with its ligand(s), which explains why fluorescence of D14::GFP fusion proteins is quenched upon SL treatment in transgenic Arabidopsis ([Chevalier et al., 2014]). We exploited this molecular network to implement a quantitative activity assay that inversely correlated luminescence to perception of SL-related molecules in transgenic Arabidopsis expressing D14::LUC under the control of the D14 endogenous promoter. […] We then used the assay to test various SLs in the same range, namely strigol as an example of natural SLs; ST23b, EGO10, and EDOT (Fig. 1, all used as rac mixtures) as examples of active SL analogues; and the new set of SL-D-lactams rac-1–9 (Fig. 2).
Fig. 4. Luciferase assay. […]

D14 degradation in the luciferase assay | Activity in the luciferase assay at 10 μM (10 μM) | Activity in the luciferase assay at 100 μM (100 μM) | SMILES
almost inactive | – | – | CC1=C[C@H](O/C=C2/C(=O)O[C@@H]3c4ccccc4C[C@H]23)NC1=O (racemic) [rac-3]
weak activity | – | – | CC1=C[C@H](O/C=C2/C(=O)O[C@H]3c4ccccc4C[C@@H]23)NC1=O (racemic) [rac-4]
substantially inactive | inactive | partial agonist | CC1=CC(C2Cc3c(n(C)c4ccccc34)C2=O)NC1=O (racemic) [rac-9]
